Data reported in article PMC13622972 (Antiviral research, 2022).
Positions of bridges follow the written chain, without caps; N, C: chain ends. Residues, ends and D or L forms follow the SMILES beside them.

Columns and labels:
[1] = test system: pseudotyped Vesicular stomatitis virus (VSV); format: cell-based
[2] = test system: pseudotyped Ebola virus (EBOV)
[3] = test system: pseudotyped Marburg virus (MARV)
[4] = test system: wild type Ebola virus Zaire; settings: 36 h

SMILES | Activity against the pseudotyped VSV virus [1] | IC50 [2] [µM] | IC50 [3] [µM] | IC50 [4] [µM]
C[C@@H](O)[C@@H]1NC(=O)CNC(=O)[C@@H](N)CSSC[C@@H](C(=O)O)NC(=O)[C@H](Cc2ccc(O)cc2)NC(=O)[C@H](Cc2ccc(O)cc2)NC(=O)[C@H](Cc2ccc(O)cc2)NC(=O)[C@H](Cc2ccccc2)NC1=O [m78abc, CGTFYYYC] (H-CGTFYYYC-OH; disulfide 1-8 (inferred); N-terminus and C-terminus assumed) | no activities | 16.1 | 12.5 | –
CC(C)[C@@H]1NC(=O)[C@H](Cc2ccccc2)NC(=O)CNC(=O)[C@H](CO)NC(=O)[C@@H](N)CSSC[C@@H](C(=O)O)NC(=O)[C@H](Cc2c[nH]c3ccccc23)NC(=O)[C@H](CCC(=O)O)NC1=O [m191abc, CSGFVEWC] (H-CSGFVEWC-OH; disulfide 1-8 (inferred); N-terminus and C-terminus assumed) | no activities | 37.2 | 8.5 | –
CC(C)[C@@H]1NC(=O)[C@H](Cc2ccccc2)NC(=O)[C@H](Cc2ccccc2)NC(=O)[C@H](CC(=O)O)NC(=O)[C@H](CC(=O)O)NC(=O)CNC(=O)[C@H](CCCCN)NC(=O)[C@@H](NC(=O)[C@@H](N)Cc2c[nH]cn2)CSSC[C@@H](C(=O)N[C@@H](Cc2ccc(O)cc2)C(=O)O)NC(=O)[C@H](C)NC(=O)[C@H](Cc2ccc(O)cc2)NC1=O [erp1c, HCKGDDFFVYACY] (H-HCKGDDFFVYACY-OH; disulfide 2-12 (inferred); N-terminus and C-terminus assumed) | no activities | 12.3 | 28.5 | 10.5
